Laboratory results taken from US20140161786A1, “Therapeutic compositions and related methods” (priority 2012, published 2014).
Where a SMILES comes first, the peptide text is derived from it.

Legend:
[1] = Amyloid fibril formation by thioflavin T (ThT) fluorescence; type: physicochemical; settings: for pH dependent amyloid fibril formation (ThT staining): buffers pH 3 to pH 10, 37° C., fluorescence at 485 nm; for amyloid fibril formation (ThT staining), L- versus D-amino acids: 100 mM MES pH 7.4, 37° C.
Procedure: The relative amount of amyloid present in each solution was measured by combining solutions of the hexamers (200 mg 50 ml) dissolved in 100 mM MES pH 7.4 and 50 ml of a 1M buffer solution at the appropriate pH (glycine, pH 3; acetate, pH 4; citrate, pH 5; MES, pH 6; Tris, pH 7; Tris, pH 8; glycine, pH 9; bicarbonate, pH 10) and incubated at 37° C. ThT (10 ml of 10 mM solution) was added and the resultant emission fluorescence at 485 nm for each sample after excitation at 440 nm was measured using a SpectraMax 190 fluorescent microtiter plate reader.
The ability of each hexamer listed in Table 1 to form amyloid fibrils in aqueous buffers was examined. Each of the hexamers (200 mg 50 ml) was added to 100 ml of 100 mM MES pH 7.4 and combined with 50 ml of a 1M buffer solution at the appropriate pH (glycine, pH 3; acetate, pH 4; citrate, pH 5; MES, pH 6; Tris, pH 7; Tris, pH 8; glycine, pH 9; bicarbonate, pH 10) and incubated at 37° C. ThT (10 ml of 10 mM solution) was added and the resultant fluorescence at 485 nm from excitation at 440 nm was measured using a fluorescent plate reader. The peptides can be segregated into sets A-E: an anionic set forming fibrils at pH 3, pH 4, and pH 5 (A), a cationic group forming fibrils only at pH 10 (B), three cationic sequences that form amyloid fibrils at all pHs measured (C), a nonionizable set of sequences weakly binding ThT at all pHs (D), and a hydrophobic set of sequences that bind ThT at all pHs tested (E). Only a fraction of the peptides formed amyloid fibrils when dissolved in PBS pH 7.4, as measured by staining with thioflavin T (ThT). Their differential propensity to form amyloid fibrils was used to help segregate them into functional sets (Table 1).
With respect the experimental results depicted in FIG. 6: A) L- and D-tau 623-628 and L- and D-Aβ 37-42 (200 μg/50 μl) were each added to 100 μl of 100 mM MES pH 7.4 and incubated at 37° C. ThT (10 μl of 10 μM solution) was added and the resultant fluorescence at 485 nm from excitation at 440 nm was measured using a fluorescent plate reader. The levels of ThT were similar in both sets of hexapeptides. […] D) Groups of ten mice were injected daily intraperitoneally for 10 days with 1 μg of L-tau or D-tau hexapeptides beginning at onset of hindlimb weakness. PBS was injected in littermates as control. Bar represents the duration of the treatment. Values in graph represent mean+/−S.E.M. *p<0.05 for L-tau and ̂p<0.05 for D-tau by Mann-Whitney U test.

[2] = biological target: T1, beta chain of insulin (Homo sapiens, UniProt P01308); test: Inhibition of DTT induced aggregation of the beta chain of insulin (molecular chaperone function); type: biochemical; settings: for molecular chaperone function (inhibition of insulin aggregation): pH 4 and pH 7.4; for inhibition of insulin aggregation, L- versus D-amino acids: FIG. 6b/6c; for inhibition of insulin aggregation: pH 7.4 and pH 5
T1 construct: DTT induced aggregation of the beta chain of insulin
T1 sequence (P01308 25-54 limits assumed): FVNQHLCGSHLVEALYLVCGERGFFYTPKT
Procedure: The capacity of the proteins and peptides to inhibit DTT induced aggregation of the beta chain of insulin was assayed using procedures described previously by several authors. See, for example, Hong, D. P. & Fink, A. L. Independent heterologous fibrillation of insulin and its B-chain peptide. Biochemistry 44, 16701-16709, doi:10.1021/bi051658y (2005). Also see, Hong, D. P., Ahmad, A. & Fink, A. L. Fibrillation of human insulin A and B chains. Biochemistry 45, 9342-9353, doi:10.1021/bi0604936 (2006). The aggregation was measured by the increase in absorption at 360 nm as a function of time over twenty minutes.
To determine whether the ThT staining observed in Experiment 4 (above) correlated with molecular chaperone function, each of the peptides was assayed for its ability to inhibit insulin aggregation. The effect of ThT on insulin aggregation was measured as a control. […] […] See, Nielsen, L. et al. Effect of environmental factors on the kinetics of insulin fibril formation: elucidation of the molecular mechanism. Biochemistry 40, 6036-6046, doi:bi002555c [pii] (2001).

[3] = test system: EAE mice; test: EAE mouse model, reduction of paralytic symptoms; type: in vivo
[4] = test system: plasma cytokine levels (IL-6, IL-2, TGF-β, IL-17); test: Plasma cytokine levels in EAE mice (multiplex-bead-analysis of 26 cytokines); type: in vivo; settings: 1 μg of Tau 623-628 or 10 μg of HspB1 daily for two days, bled 12 hours later
Procedure: EAE was induced by procedures previously described. See, Steinman, L. & Zamvil, S. S. How to successfully apply animal studies in experimental allergic encephalomyelitis to research on multiple sclerosis. Ann Neurol 60, 12-21, doi:10.1002/ana.20913 (2006). […] Sera from EAE mice were collected following two days of treatment with 10 μg HspB1 protein, 1 μg tau 623-628 (VQIVYK)(SEQ ID NO: 123), or PBS. Twenty-six cytokines were analyzed by multiplex-bead-analysis.
To determine whether a hexamer modulated the plasma cytokine levels equivalent to an intact small heat shock protein, groups of five mice were treated after the onset of hindlimb weakness with daily injections of either 1 μg of Tau 623-628 or 10 μg of HspB1 for two days and bled 12 hours later.

[5] = mice, 1 μg peptide injected daily from onset of hindlimb weakness, PBS control

insulin A chain 12-17: hexamer of insulin A chain residues 12-17, acidic residue, sequence only in Table 1 image
pH dependent amyloid fibril formation (ThT staining) [1]: effectively formed amyloid fibrils only in a range of pH 3 to pH 5 | molecular chaperone function (inhibition of insulin aggregation) [2]: molecular chaperones at pH 4, but not at pH 7.4

L-Aβ 37-42: L-amino acid hexapeptide of FIG. 6A; b76 calls it A beta 35-40 (Ac MVGGVV CONH2) (Ac-MVGGVV-NH2; UniProt P05067 706-711, looked up, fragment)
amyloid fibril formation (ThT staining), L- versus D-amino acids [1]: similar

SSTNVG [amylin 28-33]
reduction of the paralytic symptoms of EAE [3, 5]: therapeutic

GYVIIK [serum amyloid P 213-218]
pH dependent amyloid fibril formation (ThT staining) [1]: formed amyloid fibrils in buffers from pH 3-10 | reduction of the paralytic symptoms of EAE [3, 5]: therapeutic

Ac VQIVYK CONH2 [D-tau 623-628]
amyloid fibril formation (ThT staining), L- versus D-amino acids [1]: similar | inhibition of insulin aggregation, L- versus D-amino acids [2]: inhibit insulin aggregation in a dose dependent manner with similar IC50 concentrations

SVNDLV [HspB5 76-81, hexamer of HspB5 residues 76-81]
pH dependent amyloid fibril formation (ThT staining) [1]: effectively formed amyloid fibrils only in a range of pH 3 to pH 5 | molecular chaperone function (inhibition of insulin aggregation) [2]: molecular chaperone only at pH4 and not in more basic solutions | inhibition of insulin aggregation [2]: only effective at pH 5 | reduction of the paralytic symptoms of EAE [3, 5]: effectively reduced the paralytic symptoms of EAE

LKVKVL [HspB5 89-94, hexamer of HspB5 residues 89-94]
pH dependent amyloid fibril formation (ThT staining) [1]: bound ThT only at pH 10 | reduction of the paralytic symptoms of EAE [3, 5]: effectively reduced the paralytic symptoms of EAE

NKGAII [A beta A4 27-32]
pH dependent amyloid fibril formation (ThT staining) [1]: bound ThT only at pH 10 | reduction of the paralytic symptoms of EAE [3, 5]: therapeutic

Cc1ccc2c(c1)sc(-c1ccc(N(C)C)cc1)[n+]2C.[Cl-] [ThT, thioflavin T, reference compound]
effect on the rate of insulin aggregation (control) ([2]; 10 mM ThT): Neither the addition of 10 mM ThT nor ThT bound to Tau 623-628 affected the rate of insulin aggregation

VQIVYK [Tau 623-628]
amyloid fibril formation (ThT staining), L- versus D-amino acids [1]: equivalent, within error | amyloid fibril formation (ThT staining), L- versus D-amino acids ([1]; listed as L-tau 623-628): similar | pH dependent amyloid fibril formation (ThT staining) [1]: formed amyloid fibrils in buffers from pH 3-10 | IL-2 level in serum [4]: smaller reductions | IL-6 level in serum [4]: dramatic reduction | IL-17 level in serum [4]: smaller reductions | TGF-β level in serum [4]: smaller reductions | inhibition of insulin aggregation, L- versus D-amino acids [2]: inhibited insulin aggregation with very similar IC50 values | inhibition of insulin aggregation, L- versus D-amino acids ([2]; listed as L-tau): inhibit insulin aggregation in a dose dependent manner with similar IC50 concentrations | molecular chaperone function (inhibition of insulin aggregation) [2]: inhibited insulin aggregation at pH 4 and pH 7.4 | inhibition of insulin aggregation [2]: potent inhibitor at both pH 7.4 and pH 5 | IC50, inhibition of insulin aggregation ([2]; titration, Panel C of FIG. 4): approximately 20 mg | reduction of the paralytic symptoms of EAE [3, 5]: effectively reduced the paralytic symptoms of EAE

HspB1: intact small heat shock protein
IL-2 level in serum [4]: smaller reductions | IL-6 level in serum [4]: dramatic reduction | IL-17 level in serum [4]: smaller reductions | TGF-β level in serum [4]: smaller reductions

MVGGVV (Ac-MVGGVV-NH2) [A beta A4 35-40, Ac MVGGVV CONH2 in b76]
amyloid fibril formation (ThT staining), L- versus D-amino acids [1]: equivalent, within error | reduction of the paralytic symptoms of EAE ([3]; mice, 1 μg peptide daily, administered in 50% DMSO): therapeutic

insulin B chain 11-16: hexamer of insulin B chain residues 11-16, acidic residue, sequence only in Table 1 image
pH dependent amyloid fibril formation (ThT staining) [1]: effectively formed amyloid fibrils only in a range of pH 3 to pH 5 | molecular chaperone function (inhibition of insulin aggregation) [2]: molecular chaperones at pH 4, but not at pH 7.4 | reduction of the paralytic symptoms of EAE [3, 5]: did not statistically significantly reduce the symptoms of EAE

amyloid beta A4 16-21: lysine-containing hexamer of amyloid beta A4 residues 16-21 (KLVFFA; Amyloid-beta protein 42; UniProt P05067 687-692, looked up, fragment)
pH dependent amyloid fibril formation (ThT staining) [1]: formed amyloid fibrils in buffers from pH 3-10

CC(=O)N[C@@H](CO)C(=O)N[C@@H](CC(N)=O)C(=O)N[C@@H](CCC(N)=O)C(=O)N[C@@H](CC(N)=O)C(=O)N[C@@H](CC(N)=O)C(=O)N[C@@H](Cc1ccccc1)C(N)=O [prion 148-153, SNQNNF] (Ac-SNQNNF-NH2)
reduction of the paralytic symptoms of EAE ([3]; mouse, in vivo): therapeutic
